Source: the NIST ThermoML archive (doi:10.1021/je060271a)
Several values for one entry are separate records, joined by “and”; a condition that tells them apart may be missing. Equal values may be shown once.

Settings: 303.16 K, Liquid, Vibrating tube method

CCCCCC(=O)OCC(COC(=O)CCCCC)(COC(=O)CCCCC)COC(=O)CCCCC [pentaerythritol tetrahexanoate]
Settings	mass density
291.9 kPa	988.7 kg/m3
292.2 kPa	988.5 kg/m3
292.6 kPa	988.6 kg/m3
292.9 kPa	988.6 kg/m3
297.1 kPa	988.4 kg/m3
297.8 kPa	988.5 kg/m3
298.1 kPa	988.6 kg/m3
298.5 kPa	988.5 kg/m3
298.7 kPa	988.6 kg/m3
299.2 kPa	988.5 kg/m3
299.3 kPa	988.6 kg/m3
299.9 kPa	988.4 kg/m3 and 988.6 kg/m3
300.4 kPa	988.6 kg/m3
300.7 kPa	988.6 kg/m3
301.1 kPa	988.6 kg/m3
301.2 kPa	988.6 kg/m3
301.6 kPa	988.6 kg/m3
302 kPa	988.5 kg/m3
302.1 kPa	988.5 kg/m3
302.7 kPa	988.6 kg/m3
303 kPa	988.5 kg/m3
303.2 kPa	988.5 kg/m3
303.7 kPa	988.5 kg/m3
303.9 kPa	988.6 kg/m3
304.2 kPa	988.5 kg/m3
304.5 kPa	988.6 kg/m3
304.7 kPa	988.6 kg/m3
305.1 kPa	988.5 kg/m3
306.3 kPa	988.5 kg/m3
306.6 kPa	988.6 kg/m3
307 kPa	988.6 kg/m3
307.3 kPa	988.6 kg/m3
307.8 kPa	988.5 kg/m3
307.9 kPa	988.5 kg/m3
308.2 kPa	988.5 kg/m3
308.7 kPa	988.6 kg/m3
309.1 kPa	988.5 kg/m3
309.4 kPa	988.6 kg/m3
309.8 kPa	988.5 kg/m3
310.1 kPa	988.5 kg/m3
310.8 kPa	988.5 kg/m3
311 kPa	988.5 kg/m3
311.3 kPa	988.6 kg/m3
311.7 kPa	988.6 kg/m3
311.9 kPa	988.5 kg/m3
312.2 kPa	988.6 kg/m3
312.5 kPa	988.6 kg/m3
313.6 kPa	988.6 kg/m3
314.6 kPa	988.6 kg/m3
315.8 kPa	988.6 kg/m3
316.7 kPa	988.5 kg/m3
317.1 kPa	988.4 kg/m3
317.2 kPa	988.6 kg/m3
317.4 kPa	988.5 kg/m3
317.9 kPa	988.5 kg/m3
318.1 kPa	988.6 kg/m3
318.5 kPa	988.6 kg/m3
318.6 kPa	988.6 kg/m3
318.8 kPa	988.5 kg/m3
319 kPa	988.5 kg/m3
319.3 kPa	988.5 kg/m3
319.5 kPa	988.5 kg/m3
319.8 kPa	988.5 kg/m3
320.4 kPa	988.5 kg/m3
320.9 kPa	988.5 kg/m3
321.2 kPa	988.5 kg/m3
321.9 kPa	988.6 kg/m3
322.3 kPa	988.6 kg/m3
324.7 kPa	988.5 kg/m3
325.6 kPa	988.6 kg/m3
326.1 kPa	988.6 kg/m3
326.6 kPa	988.4 kg/m3 and 988.6 kg/m3
